Values after ≈ are worked out from the molar mass of the structure shown. Marks after values point to notes of the source that are not given here.

Here are results for three compounds from patent US20180042918A1, “RESPIRATORY INFECTION TREATING AGENT” (KYORIN PHARMACEUTICAL CO., LTD., priority 2015, published 2018).

The conditions of data set [1]: rat, 1.0 hour after oral administration; cited from earlier work.
The subject of data set [2] is S. aureus ATCC29213. Nature of the data set: Frequency of development of resistant bacteria. In kind it is cell-based, Staphylococcus aureus. To be noted: about 70 hours. As for the experimental part:
(§1) S. aureus ATCC29213 is Staphylococcus aureus, S. pneumoniae ATCC49619 is Streptococcus pneumoniae, and E. coli ATCC25922 is Escherichia coli. […]
(§2) The frequency of development of resistant bacteria was calculated by dividing the number of colonies developed on an agar medium having each drug concentration by the number of initially inoculated bacteria.

Data set [3] relates to S. aureus MS5935 4th. Nature of the data set: microbe, parasite or virus in culture. The data set is classed as cell-based. To be noted: Staphylococcus aureus, MS59354TH.
Data set [4] deals with S. aureus MS5935 1st. Nature of the data set: microbe, parasite or virus in culture. The data set is classed as cell-based. To be noted: Staphylococcus aureus, MS59351ST.
In data set [5] the test system is S. pneumoniae SF9863. The data set is described as follows: microbe, parasite or virus in culture. The data set is classed as cell-based. To be noted: Streptococcus pneumoniae.
Data set [6] relates to S. aureus MS5935 gyrA mutant. The data set is described as follows: microbe, parasite or virus in culture. The data set is classed as cell-based. Conditions: Staphylococcus aureus.
The conditions of data set [7]: consecutive administration, daily dose of 500 mg; cited from earlier work.
For data set [8], the system named is S. pneumoniae GF9821. Nature of the data set: microbe, parasite or virus in culture. In kind it is cell-based. To be noted: Streptococcus pneumoniae.
Data set [9] relates to S. aureus MS5935. The data set is described as follows: Antibacterial activity against quinolone-resistant strain in vitro, CLSI dilution. In kind it is cell-based. Conditions: Staphylococcus aureus; S. aureus MS5935, PARENT STRAIN, gyrA None, grlA None.
Data set [10] concerns S. pneumoniae IID553. The data set is described as follows: microbe, parasite or virus in culture. In kind it is cell-based. Conditions: Streptococcus pneumoniae.
Data set [11] deals with QUINOLONE RESISTANT Topoisomerase IV (S. aureus) (Staphylococcus aureus, UniProt P0C1U9). Nature of the data set: Enzyme inhibitory activity, decatenation of kinetoplast DNA. The data set is classed as biochemical. Conditions: read-out: IC50 VALUE, QUINOLONE RESISTANT Topoisomerase IV (converted). Here is the method:
(§3) Agents Chemother. 45: 3544-3547 (2001). […] The measurement was performed in the same manner as in Test Example 3. Similarly, the inhibitory activities of ciproxacin, levofloxacin, and garenoxacin were measured. The results were compared.

For data set [12], the target named is Topoisomerase IV (S. aureus) (Staphylococcus aureus, UniProt P0C1S7+P0C1U9). The data set is described as above. The data set is classed as biochemical. Conditions: S. aureus enzyme; read-out: IC50 VALUE, Topoisomerase IV (converted). As for the experimental part: as §3
Data set [13] deals with S. aureus ATCC29213. The data set is described as follows: MIC of strain used for resistance frequency test. In kind it is cell-based. To be noted: Staphylococcus aureus, ATCC29213.
For data set [14], the system named is S. pneumoniae CF9842. Nature of the data set: microbe, parasite or virus in culture. The data set is classed as cell-based. Conditions: Streptococcus pneumoniae.
Data set [15] deals with M. catarrhalis (26 STRAINS). Nature of the data set: Antibacterial activity against clinically isolated strains, MIC90. The data set is classed as cell-based. Conditions: Moraxella catarrhalis, 26 clinically isolated strains. As for the experimental part: (§4) The antibacterial activities in vitro of the compound D, garenoxacin, and levofloxacin against each clinically isolated strain of Streptococcus pneumoniae, Moraxella catarrhalis, and Haemophilus influenzae were measured in accordance with a CLSI microdilution method or a CLSI agar dilution method. A MIC90 value was the minimum concentration in which the growth of 90% strain of all the measured strains was inhibited.

Data set [16] has as its system H. influenzaes (26 STRAINS). The description is as above. In kind it is cell-based. To be noted: Haemophilus influenzae, 26 clinically isolated strains. Here is the method: as §4
For data set [17], the system named is PSSP (26 STRAINS). The description is as above. The data set is classed as cell-based. Conditions: Streptococcus pneumoniae, 26 clinically isolated strains. As for the experimental part: as §4
Data set [18] has as its system PCG-LOW SENSITIVE S. pneumoniae (22 STRAINS). The description is as above. Conditions: Streptococcus pneumoniae, 22 clinically isolated strains. In kind it is cell-based. As for the experimental part:
as §4

The subject of data set [19] is S. pneumoniae ATCC49619. Nature of the data set: Frequency of development of resistant bacteria. Conditions: about 70 hours. In kind it is cell-based, Streptococcus pneumoniae. As for the experimental part:
as §1, §2

Data set [20] addresses Topoisomerase IV (S. pneumoniae IID553) (Streptococcus pneumoniae serotype 4, UniProt P72525+Q59961). Nature of the data set: Enzyme inhibitory activity, decatenation of kinetoplast DNA.
Data set [21] relates to S. aureus MS5935 2nd. The data set is described as follows: microbe, parasite or virus in culture. Conditions: Staphylococcus aureus, MS59352ND. In kind it is cell-based.
The subject of data set [22] is E. coli ATCC25922. The data set is described as follows: Frequency of development of resistant bacteria. The data set is classed as cell-based, Escherichia coli. To be noted: about 70 hours. As for the experimental part:
as §1, §2

The subject of data set [23] is S. pneumoniae ATCC49619. Nature of the data set: microbe, parasite or virus in culture. The data set is classed as cell-based. To be noted: Streptococcus pneumoniae.
In data set [24] the test system is S. pneumoniae NF9884. The data set is described as follows: microbe, parasite or virus in culture. The data set is classed as cell-based. Conditions: Streptococcus pneumoniae.
Data set [25] relates to S. aureus MS5935 3rd. Nature of the data set: microbe, parasite or virus in culture. Conditions: Staphylococcus aureus, MS59353RD. The data set is classed as cell-based.
Data set [26] has as its system E. coli ATCC25922. Nature of the data set: microbe, parasite or virus in culture. The data set is classed as cell-based. Conditions: Escherichia coli.
Data set [27] relates to S. pneumoniae SN9981. The data set is described as follows: microbe, parasite or virus in culture. In kind it is cell-based. To be noted: Streptococcus pneumoniae.
For data set [28], the system named is S. pneumoniae KY-9. The data set is described as follows: Antibacterial activity against Streptococcus pneumoniae in vitro, CLSI microdilution. The data set is classed as cell-based. Conditions: KY9. As for the experimental part:
The antibacterial activities in vitro of the compound D, garenoxacin, and levofloxacin against a strain in a mouse infected with Streptococcus pneumoniae (S. pneumonia KY-9) were measured in accordance with a CLSI microdilution method.
A general note: Dilution methods test growth across graded concentrations, often in twofold steps.

Data set [29] concerns the target DNA gyrase derived from S. aureus (Staphylococcus aureus, UniProt P0A0K8+P20831). Nature of the data set: Enzyme inhibitory activity, supercoiling of relaxed pBR322. The data set is classed as biochemical. Conditions: S. aureus enzyme; average of three or average ± SD; read-out: IC50 VALUE, DNA gyrase (converted). Here is the method: as §3
Data set [30] has as its target QUINOLONE RESISTANT DNA gyrase (quinolone-resistant S. aureus) (Staphylococcus aureus, UniProt P20831). The description is as above. The data set is classed as biochemical. Conditions: average of three or average ± SD, read-out: IC50 VALUE, QUINOLONE RESISTANT DNA gyrase (converted). As for the experimental part:
as §3

Data set [31] concerns S. pneumoniae ST9941. The data set is described as follows: microbe, parasite or virus in culture. The data set is classed as cell-based. To be noted: Streptococcus pneumoniae.
The target in data set [32] is DNA gyrase derived from S. pneumoniae IID553 (Streptococcus pneumoniae serotype 4, UniProt P0A4L9+P72524). The data set is described as follows: Enzyme inhibitory activity, supercoiling of relaxed pBR322.
A short description of data set [33]: Concentration in tissue (rat, oral administration), radioactivity. The data set is classed as in vivo. Conditions: SD rat, single oral 10.83 mg/kg; for RADIOACTIVITY CONCENTRATION IN TISSUE, LUNG / RADIOACTIVITY CONCENTRATION IN TISSUE, PLASMA: fasting. Here is the method: The compound C (10.83 mg/kg) (solvent: water) was single orally administrated to a SD rat under fasting. 1, 6, and 24 hours after the administration, the lung tissue and the plasma were collected. The lung tissue was dried and treated by a sample oxidizer system (Sample Oxidizer: Model 307, PerkinElmer Inc., glass vial: 20 mL, Wheaton Industries, carbon dioxide absorbent: Carbo-Sorb 8 mL, PerkinElmer Inc., scintillation cocktail: Permafluor 12 mL, PerkinElmer Inc.), and the radioactivity concentration was measured. The plasma was fractionated in a midi-vial (8 mL, PerkinElmer Inc.), 6 mL of scintillation cocktail (Ultima Gold) was added, and the radioactivity concentration was measured. The radioactivity concentration was measured using a liquid scintillation counter (Tri-Carb 2500TR or 2700TR, PerkinElmer Inc.) (average value, n=3).

As for `CC1COc2c(N3CCN(C)CC3)c(F)cc3c(=O)c(C(=O)O)cn1c23` (stereo not drawn) [ofloxacin], the “tissue distribution ratio into the lung tissue” value in [1] is listed as 2.7.

Turning to `C[C@H]1COc2c(N3CCN(C)CC3)c(F)cc3c(=O)c(C(=O)O)cn1c23` [LVFX, levofloxacin], the “FREQUENCY OF DEVELOPMENT OF RESISTANT BACTERIA (AVERAGE OF TWO MEASURED VALUES)” value in data set [2] (S. aureus ATCC29213, 4 × MIC) is on record as <2.1 × 10^−9; in data set [2] (S. aureus ATCC29213, 8 × MIC), <2.1 × 10^−9; in [2] (S. aureus ATCC29213, 16 × MIC) it was <2.1 × 10^−9; in data set [19] (S. pneumoniae ATCC49619, 4 × MIC), <1.1 × 10^−8; in data set [19] (S. pneumoniae ATCC49619, 8 × MIC) it was <1.1 × 10^−8; in data set [19] (S. pneumoniae ATCC49619, 16 × MIC), <1.1 × 10^−8. In addition, the “FREQUENCY OF DEVELOPMENT OF RESISTANT BACTERIA (AVERAGE OF TWO MEASURED VALUES)” value in data set [22] (E. coli ATCC25922, 4 × MIC) is on record as 3.9 × 10^−9*; in data set [22] (E. coli ATCC25922, 8 × MIC), <1.9 × 10^−9; in data set [22] (E. coli ATCC25922, 16 × MIC), <1.9 × 10^−9. Besides, the MIC was 128 µg/mL (≈ 354 µM) in data set [3]; 0.5 µg/mL (≈ 1.38 µM) in data set [4]; 2 µg/mL (≈ 5.53 µM) in data set [5]; 0.25 µg/mL (≈ 0.692 µM) in data set [6]; 2 µg/mL (≈ 5.53 µM) in data set [8]; 0.125 µg/mL (≈ 0.346 µM) in data set [9]. Besides, the MIC in data set [10] was found to be 1 µg/mL (≈ 2.77 µM); in data set [13], 0.125 µg/mL; in data set [14], 2 µg/mL (≈ 5.53 µM); in data set [21], 8 µg/mL (≈ 22.1 µM); in data set [23], 1 µg/mL (≈ 2.77 µM); in data set [24], 2 µg/mL (≈ 5.53 µM). Moreover, the MIC in data set [25] stood at 32 µg/mL (≈ 88.6 µM); in [26] it was 0.015 µg/mL (≈ 0.0415 µM); in data set [27], 16 µg/mL (≈ 44.3 µM); in [28], 1 µg/mL (≈ 2.77 µM); in data set [31], 16 µg/mL (≈ 44.3 µM). For the same compound, in [7], the exposure (AUC) was 49670 ng·h/mL. In addition, in data set [7], the maximum concentration (Cmax) is 6320 ng/mL. The IC50 in data set [11] was 238 µM; in data set [12] it was 7.75 µM; in data set [20], 30.4 µM; in data set [29], 44.3 µM; in data set [30], 3600 µM; in data set [32] it was 443 µM. Moreover, the MIC90 in data set [15] was determined as 0.03 µg/mL (≈ 0.083 µM); in data set [16], 0.03 µg/mL (≈ 0.083 µM); in [17] it was 1 µg/mL (≈ 2.77 µM); in data set [18], 1 µg/mL (≈ 2.77 µM).

For `COc1c(N2C[C@H](CNC3CC3)[C@H](F)C2)c(F)cc2c(=O)c(C(=O)O)cn(CCF)c12.Cl` [Compound C, 7-[(3S,4S)-3-{(cyclopropylamino)methyl}-4-fluoropyrrolidine-1-yl]-6-fluoro-1-(2-fluoroethyl)-8-methoxy-4-oxo-1,4-dihydro[2-^14C1]quinoline-3-carboxylic acid hydrochloride], the “RADIOACTIVITY CONCENTRATION IN TISSUE, LUNG” value in data set [33] (1 hr) was 10.3 μg eq./mL or g; in [33] (6 hr) it was 2.44 μg eq./mL or g; in data set [33] (24 hr), 0.0541 μg eq./mL or g. Besides, the results for the “RADIOACTIVITY CONCENTRATION IN TISSUE, PLASMA” value in data set [33] (1 hr), in data set [33] (6 hr) and in data set [33] (24 hr) were 2.79 μg eq./mL or g, 0.815 μg eq./mL or g and 0.0294 μg eq./mL or g, respectively. In addition, the “TISSUE DISTRIBUTION RATIO, LUNG” value in data set [33] (1 hr) is recorded as 3.7; in data set [33] (6 hr) it was 3.0; in data set [33] (24 hr), 1.9.

As usually defined, the AUC is the area under the concentration-time curve, a measure of exposure. In general, Cmax refers to the peak of the concentration-time curve. One may read the IC50 as the midpoint of a concentration-inhibition curve.
